Test results: PubChem BioAssay (NCI)
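Five compound concentrations were applied to cells in 96-well plates for 48 hours; endpoints were derived by simple linear interpolation of the resulting dose-response curve. TGI: concentration producing complete growth inhibition.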

Legend:
Assay in all cases: inhibition of tumour cell growth, NCI panel, 48 h
[1] = system: 786-0 renal
[2] = system: A498 renal
[3] = system: A549 NSCLC
[4] = system: ACHN renal
[5] = system: BT-549 breast
[6] = system: CAKI-1 renal
[7] = system: CCRF-CEM leukemia
[8] = system: COLO 205 colon
[9] = system: DU-145 prostate
[10] = system: EKVX NSCLC
[11] = system: HCC-2998 colon
[12] = system: HCT-116 colon
[13] = system: HCT-15 colon
[14] = system: HL-60(TB) leukemia
[15] = system: HOP-62 NSCLC
[16] = system: HOP-92 NSCLC
[17] = system: HS 578T breast
[18] = system: HT29 colon
[19] = system: K-562 leukemia
[20] = system: KM12 colon
[21] = system: LOX IMVI melanoma
[22] = system: M14 melanoma
[23] = system: MALME-3M melanoma
[24] = system: MCF7 breast
[25] = system: MDA-MB-231 breast
[26] = system: MDA-MB-435
[27] = system: MDA-N
[28] = system: MOLT-4 leukemia
[29] = system: NCI-H226 lung
[30] = system: NCI-H23 lung
[31] = system: NCI-H460 lung
[32] = system: NCI-H522 lung
[33] = system: NCI/ADR-RES ovarian
[34] = system: OVCAR-3 ovarian
[35] = system: OVCAR-4 ovarian
[36] = system: OVCAR-5 ovarian
[37] = system: OVCAR-8 ovarian
[38] = system: PC-3 prostate
[39] = system: RXF 393 renal
[40] = system: SF-268 CNS
[41] = system: SF-295 CNS
[42] = system: SF-539 CNS
[43] = system: SK-MEL-2 melanoma
[44] = system: SK-MEL-28 melanoma
[45] = system: SK-MEL-5 melanoma
[46] = system: SK-OV-3 ovarian
[47] = system: SN12C renal
[48] = system: SNB-19 CNS
[49] = system: SNB-75 CNS
[50] = system: SR leukemia
[51] = system: SW-620 colon
[52] = system: T-47D breast
[53] = system: TK-10 renal
[54] = system: U251 CNS
[55] = system: UACC-257 melanoma
[56] = system: UACC-62 melanoma
[57] = system: UO-31 renal
[58] = system: IGROV1 ovarian
[59] = system: RPMI-8226 leukemia

CCOc1ccc2c(c1)C(/C(C(Cl)=C(Cl)Cl)=[N+](/[O-])OC(=O)c1ccccc1)=N2
TGI [1]: > 100 µM | TGI [2]: > 100 µM | TGI [3]: > 100 µM | TGI [4]: > 100 µM | TGI [5]: 97.8 µM | TGI [6]: > 100 µM | TGI [7]: > 100 µM | TGI [8]: > 100 µM | TGI [9]: > 100 µM | TGI [10]: > 100 µM | TGI [11]: > 100 µM | TGI [12]: > 100 µM | TGI [13]: > 100 µM | TGI [14]: > 100 µM | TGI [15]: > 100 µM | TGI [16]: > 100 µM | TGI [17]: > 100 µM | TGI [18]: > 100 µM | TGI [19]: > 100 µM | TGI [20]: > 100 µM | TGI [21]: > 100 µM | TGI [22]: > 100 µM | TGI [23]: > 100 µM | TGI [24]: > 100 µM | TGI [25]: > 100 µM | TGI [26]: > 100 µM | TGI [27]: > 100 µM | TGI [28]: > 100 µM | TGI [29]: > 100 µM | TGI [30]: > 100 µM | TGI [31]: > 100 µM | TGI [32]: > 100 µM | TGI [33]: > 100 µM | TGI [34]: > 100 µM | TGI [35]: > 100 µM | TGI [36]: > 100 µM | TGI [37]: > 100 µM | TGI [38]: > 100 µM | TGI [39]: > 100 µM | TGI [40]: > 100 µM | TGI [41]: > 100 µM | TGI [42]: > 100 µM | TGI [43]: > 100 µM | TGI [44]: > 100 µM | TGI [45]: > 100 µM | TGI [46]: > 100 µM | TGI [47]: > 100 µM | TGI [48]: > 100 µM | TGI [49]: > 100 µM | TGI [50]: > 100 µM | TGI [51]: > 100 µM | TGI [52]: > 100 µM | TGI [53]: > 100 µM | TGI [54]: > 100 µM | TGI [55]: > 100 µM | TGI [56]: > 100 µM | TGI [57]: > 100 µM

[N-]=[N+]=Nc1cc(=O)[nH]c2ccccc12
TGI [1]: > 100 µM | TGI [3]: > 100 µM | TGI [4]: > 100 µM | TGI [5]: > 100 µM | TGI [6]: > 100 µM | TGI [7]: > 100 µM | TGI [8]: > 100 µM | TGI [10]: 42.5 µM | TGI [12]: > 100 µM | TGI [15]: > 100 µM | TGI [16]: > 100 µM | TGI [17]: > 100 µM | TGI [18]: > 100 µM | TGI [58]: > 100 µM | TGI [19]: > 100 µM | TGI [20]: > 100 µM | TGI [22]: > 100 µM | TGI [23]: > 100 µM | TGI [24]: > 100 µM | TGI [25]: > 100 µM | TGI [26]: > 100 µM | TGI [27]: > 100 µM | TGI [28]: > 100 µM | TGI [29]: > 100 µM | TGI [30]: > 100 µM | TGI [32]: > 100 µM | TGI [33]: > 100 µM | TGI [34]: > 100 µM | TGI [35]: > 100 µM | TGI [36]: > 100 µM | TGI [37]: > 100 µM | TGI [38]: > 100 µM | TGI [59]: > 100 µM | TGI [39]: > 100 µM | TGI [40]: > 100 µM | TGI [41]: > 100 µM | TGI [42]: > 100 µM | TGI [43]: > 100 µM | TGI [44]: > 100 µM | TGI [45]: > 100 µM | TGI [46]: > 100 µM | TGI [47]: > 100 µM | TGI [48]: > 100 µM | TGI [49]: > 100 µM | TGI [50]: > 100 µM | TGI [51]: > 100 µM | TGI [52]: > 100 µM | TGI [53]: > 100 µM | TGI [54]: > 100 µM | TGI [55]: > 100 µM | TGI [56]: > 100 µM | TGI [57]: > 100 µM
